pEC50, pIC50: −log10 of the molar value. Peptide text beside a SMILES is read from it.
How the values were obtained:
[1] = target: T1, human amylin 3(a) receptor (human calcitonin receptor + RAMP-3), BHK570 cells (Homo sapiens, UniProt O60896+P30988); test: Assay (II)b functional CRE-luciferase assay without albumin, human amylin receptor; type: cell-based; conditions: Tested without HSA; read-out: hAmylin-R funct. EC50
T1 construct: host or cells: BHK570
Excerpt: (§1) Assay(II)b—Human Calcitonin and Amylin Receptor Assay without Albumin
(§2) 1. Luciferase Assay Outline
(§3) Activation of calcitonin and amylin (co-expression of calcitonin receptor and receptor activity modifying proteins (RAMP)) receptors lead to increased intracellular concentrations of cAMP. Consequently, transcription is activated by promoters containing multiple copies of the cAMP response element (CRE). It is thus possible to measure amylin activity by the use of a CRE luciferase reporter gene introduced into BHK cells also expressing calcitonin or amylin receptors.
(§4) 2. Construction of Calcitonin (a)—and Amylin 3(a)—Receptor/CRE-Luc Cell Line.
(§5) A BHK570 cell line was stably transfected with the human calcitonin receptor and a CRE-responsive luciferase reporter gene (Hollex-1 cell line, obtained from ZymoGenetics described in U.S. Pat. No. 5,622,839). The cell line was further transfected with RAMP-3, using standard methods. This turns the calcitonin receptor into an amylin 3(a) receptor. Methotrexate, Neomycin, and Hygromycin are selection markers for luciferase, the calcitonin receptor, and RAMP-3, respectively. To prepare the batches of frozen cells used in the luciferase assay described in the section below, the cells were cultured in growth medium (DMEM with 10% FBS, 1% Pen/Strep and 1 mM Napyruvate). […] Cells at approximately 80-90% confluence were washed with PBS and loosened from the plates with Versene. After centrifugation (2 min, 1300 rpm, in a Centrion Scientific centriuge C2 series with a BRK 5510 rotor head), the cell pellet was dissolved in 10% DMSO, 30% FBS and 60% growth medium and frozen (−80° C.) until utilization.
(§6) The day before the experiment, BHK calcitonin (a) receptor- or amylin 3(a)-receptor/CRE-luc cells were thawed, washed twice, and seeded in 40 μl growth medium on white 384 well culture plates (4.000 cells/well). On the assay day, the cells were washed 3 times in assay media (Dulbecco media W/o phenol red, 500 ml (Gibco, 11880-028); 0.1% ovalbumin; 10 mM Hepes pH 7.4; 1× Glutamin; 1% Pen/Strep). Then, 30 μl/well of sample diluted in assay buffer was added. After 3 hours of incubation at 37° C. and 5% CO2, the reaction was terminated by adding 30 μl/well SteadyLite Plus™. The plates were shaken at 300 rpm for 5 min at RT. Then, the plates were sealed and incubated at room temperature for 30 minutes. Finally, luminescence was tested on a TopCounter (Packard) in SPC (single photon counting) mode.
(§7) Additional Comment Regarding Use of Data Retrieved Via this Method
(§8) For the same reasons, measurements made in Assay IIa should not be compared in Assay IIb.

[2] = target: T2, human calcitonin (a) receptor, BHK570 cells (Homo sapiens, UniProt P30988); test: Assay (II)b functional CRE-luciferase assay without albumin, human calcitonin receptor; type: cell-based; conditions: Tested without HSA; read-out: hCTR funct. EC50
T2 construct: host or cells: BHK570
T2 sequence (P30988 25-474): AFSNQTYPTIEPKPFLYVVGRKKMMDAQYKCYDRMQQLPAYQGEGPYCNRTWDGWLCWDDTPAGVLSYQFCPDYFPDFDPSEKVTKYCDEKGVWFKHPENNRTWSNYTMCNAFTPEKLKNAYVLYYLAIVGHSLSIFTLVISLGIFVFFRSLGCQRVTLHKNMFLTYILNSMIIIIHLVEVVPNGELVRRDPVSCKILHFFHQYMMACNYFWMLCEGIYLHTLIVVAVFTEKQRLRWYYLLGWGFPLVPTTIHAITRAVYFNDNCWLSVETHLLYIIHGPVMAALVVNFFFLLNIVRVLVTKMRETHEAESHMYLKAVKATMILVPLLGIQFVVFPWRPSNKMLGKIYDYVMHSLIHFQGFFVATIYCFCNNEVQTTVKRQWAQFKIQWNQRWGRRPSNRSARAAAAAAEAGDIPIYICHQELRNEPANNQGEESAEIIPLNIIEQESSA
Excerpt: as §1, §2, §3, §4, §5, §6, §7, §8

[3] = target: T3, human amylin receptor (human calcitonin receptor + human RAMP3), BHK tk'ts 13 cells (Homo sapiens, UniProt O60896+P30988); test: Assay (Va) binding to the human amylin receptor (whole cell); conditions: read-out: hAmylin-R binding IC50
T3 construct: expressed in transfected cells; host or cells: BHK tk'ts 13
Experimental: The day before the assay the cells were Seeded into Poly-D-Lysin coated 384W Opaque White, BD BioCoat plates (10000 cells/well) and Incubated overnight at 37° C., 5% CO2, 95% humidity.

T1 sequence (O60896 24-148, one chain of several): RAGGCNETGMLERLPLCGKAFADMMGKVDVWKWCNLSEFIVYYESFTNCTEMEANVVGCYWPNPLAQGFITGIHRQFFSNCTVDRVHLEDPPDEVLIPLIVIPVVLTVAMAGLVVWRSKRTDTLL
T3 sequence (O60896 24-148, one chain of several): as above

| Compound | pEC50 [1] | pEC50 [2] | pIC50 [3] |
| --- | --- | --- | --- |
| CC(C)C[C@H](NC(=O)CNC(=O)[C@H](CO)NC(=O)[C@H](C)N)C(=O)N[C@@H](CO)C(=O)N[C@H](C(=O)N[C@@H](C)C(=O)N[C@H](C(=O)N[C@@H](CC(C)C)C(=O)NCC(=O)N[C@@H](CCCNC(=N)N)C(=O)N[C@@H](CC(C)C)C(=O)N[C@@H](CO)C(=O)N[C@@H](CCC(N)=O)C(=O)N[C@@H](CCC(=O)O)C(=O)N[C@@H](CC(C)C)C(=O)N[C@@H](Cc1c[nH]cn1)C(=O)N[C@@H](CCC(=O)O)C(=O)N[C@@H](CC(C)C)C(=O)N[C@@H](CCC(N)=O)C(=O)N[C@H](C(=O)N[C@@H](Cc1ccc(O)cc1)C(=O)N1CCC[C@H]1C(=O)N[C@@H](CCCNC(=N)N)C(=O)N[C@H](C(=O)N[C@@H](CCC(=O)O)C(=O)N[C@H](C(=O)NCC(=O)N[C@@H](CO)C(=O)NCC(=O)N[C@H](C(=O)N[C@@H](Cc1ccc(O)cc1)C(N)=O)[C@@H](C)O)[C@@H](C)O)[C@@H](C)O)[C@@H](C)O)[C@@H](C)O)[C@@H](C)O [124bb, [des1, 4G, 9T, 15Q, 21Q, 23Y, 30S, 31G, 32T, 33Y]mimylin] (H-ASGLSTATLGRLSQELHELQTYPRTETGSGTY-NH2; N-terminus and C-terminus assumed) | 11.30 | 11.40 |  |
| CC(C)C[C@H](NC(=O)[C@H](C)NC(=O)[C@H](C)NC(=O)[C@@H](NC(=O)[C@H](CO)NC(=O)[C@H](CC(C)C)NC(=O)[C@H](CCC(=O)O)NC(=O)[C@H](CO)NC(=O)[C@H](C)N)[C@@H](C)O)C(=O)NCC(=O)N[C@@H](Cc1c[nH]cn1)C(=O)N[C@@H](CC(C)C)C(=O)N[C@@H](CO)C(=O)N[C@@H](C)C(=O)N[C@@H](CCC(=O)O)C(=O)N[C@@H](CC(C)C)C(=O)N[C@@H](Cc1c[nH]cn1)C(=O)N[C@@H](CCC(=O)O)C(=O)N[C@@H](CC(C)C)C(=O)N[C@@H](C)C(=O)N[C@H](C(=O)N[C@@H](CC(C)C)C(=O)N1CCC[C@H]1C(=O)N[C@@H](CCCNC(=N)N)C(=O)N[C@H](C(=O)N[C@@H](CCC(=O)O)C(=O)N[C@H](C(=O)NCC(=O)N[C@@H](CO)C(=O)NCC(=O)N[C@@H](CO)C(=O)N1CCC[C@H]1C(N)=O)[C@@H](C)O)[C@@H](C)O)[C@@H](C)O [72bb, H—ASELSTAALGHLSAELHELATLPRTETGSGSP—NH2] (H-ASELSTAALGHLSAELHELATLPRTETGSGSP-NH2) | 10.85 | 11.52 | 8.29 |
| CC(C)C[C@H](NC(=O)[C@H](CCC(=O)O)NC(=O)[C@H](Cc1c[nH]cn1)NC(=O)[C@H](CC(C)C)NC(=O)[C@H](CCC(=O)O)NC(=O)[C@H](C)NC(=O)[C@H](CO)NC(=O)[C@H](CC(C)C)NC(=O)[C@H](CCCNC(=N)N)NC(=O)CNC(=O)[C@H](CC(C)C)NC(=O)[C@@H](NC(=O)[C@H](C)NC(=O)[C@@H](NC(=O)[C@H](CO)NC(=O)[C@@H](NC(=O)[C@H](CCC(=O)O)NC(=O)[C@H](CO)NC(=O)[C@H](C)N)C(C)C)[C@@H](C)O)C(C)C)C(=O)N[C@@H](C)C(=O)N[C@H](C(=O)N[C@@H](CC(C)C)C(=O)N1CCC[C@H]1C(=O)N[C@@H](CCCNC(=N)N)C(=O)N[C@H](C(=O)N[C@@H](CCC(=O)O)C(=O)N[C@H](C(=O)NCC(=O)N[C@@H](CO)C(=O)NCC(=O)N[C@@H](CO)C(=O)N1CCC[C@H]1C(N)=O)[C@@H](C)O)[C@@H](C)O)[C@@H](C)O [86bb, H—ASEVSTAVLGRLSAELHELATLPRTETGSGSP—NH2] (H-ASEVSTAVLGRLSAELHELATLPRTETGSGSP-NH2) | 11.15 | 11.70 | 9.01 |
| CC(C)C[C@H](NC(=O)CNC(=O)[C@H](CO)NC(=O)[C@@H](N)CC(C)C)C(=O)N[C@@H](CO)C(=O)N[C@H](C(=O)N[C@@H](C)C(=O)N[C@H](C(=O)N[C@@H](CC(C)C)C(=O)NCC(=O)N[C@@H](CCCNC(=N)N)C(=O)N[C@@H](CC(C)C)C(=O)N[C@@H](CO)C(=O)N[C@@H](CCC(N)=O)C(=O)N[C@@H](CCC(=O)O)C(=O)N[C@@H](CC(C)C)C(=O)N[C@@H](Cc1c[nH]cn1)C(=O)N[C@@H](CCC(=O)O)C(=O)N[C@@H](CC(C)C)C(=O)N[C@@H](CCC(N)=O)C(=O)N[C@H](C(=O)N[C@@H](Cc1ccc(O)cc1)C(=O)N1CCC[C@H]1C(=O)N[C@@H](CCCNC(=N)N)C(=O)N[C@H](C(=O)N[C@@H](CCC(=O)O)C(=O)N[C@H](C(=O)NCC(=O)N[C@@H](CO)C(=O)N[C@@H](CCC(N)=O)C(=O)N[C@H](C(=O)N[C@@H](Cc1ccc(O)cc1)C(N)=O)[C@@H](C)O)[C@@H](C)O)[C@@H](C)O)[C@@H](C)O)C(C)C)[C@@H](C)O [127bb, H—LSGLSTAVLGRLSQELHELQTYPRTETGSQTY—NH2] (H-LSGLSTAVLGRLSQELHELQTYPRTETGSQTY-NH2) | 10.96 | 11.22 | 8.93 |
| CC(C)C[C@H](NC(=O)[C@H](CCCNC(=N)N)NC(=O)CNC(=O)[C@H](CC(C)C)NC(=O)[C@@H](NC(=O)[C@H](C)NC(=O)[C@@H](NC(=O)[C@@H](NC(=O)[C@H](CC(C)C)NC(=O)[C@H](CCC(=O)O)NC(=O)[C@H](CO)NC(=O)[C@H](C)N)[C@@H](C)O)[C@@H](C)O)C(C)C)C(=O)N[C@@H](CCC(=O)O)C(=O)N[C@@H](C)C(=O)N[C@@H](CCC(=O)O)C(=O)N[C@@H](CC(C)C)C(=O)N[C@@H](Cc1c[nH]cn1)C(=O)N[C@@H](CCC(=O)O)C(=O)N[C@@H](CC(C)C)C(=O)N[C@H](C(=O)N[C@H](C(=O)N[C@@H](CC(C)C)C(=O)N1CCC[C@H]1C(=O)N[C@@H](CCCNC(=N)N)C(=O)N[C@H](C(=O)N[C@@H](CCC(=O)O)C(=O)N[C@H](C(=O)NCC(=O)N[C@H](C(=O)NCC(=O)N[C@H](C(=O)N1CCC[C@H]1C(N)=O)[C@@H](C)O)[C@@H](C)O)[C@@H](C)O)[C@@H](C)O)[C@@H](C)O)[C@@H](C)O [106bb, H—ASELTTAVLGRLEAELHELTTLPRTETGTGTP—NH2] (H-ASELTTAVLGRLEAELHELTTLPRTETGTGTP-NH2) |  |  | 7.15 |
| CC(C)C[C@H](NC(=O)CNC(=O)[C@H](CO)NC(=O)[C@H](C)N)C(=O)N[C@@H](CO)C(=O)N[C@H](C(=O)N[C@@H](C)C(=O)N[C@H](C(=O)N[C@@H](CC(C)C)C(=O)NCC(=O)N[C@@H](CCCNC(=N)N)C(=O)N[C@@H](CC(C)C)C(=O)N[C@@H](CO)C(=O)N[C@@H](CCC(N)=O)C(=O)N[C@@H](CCC(=O)O)C(=O)N[C@@H](CC(C)C)C(=O)N[C@@H](Cc1c[nH]cn1)C(=O)N[C@@H](CCC(=O)O)C(=O)N[C@@H](CC(C)C)C(=O)N[C@@H](CCC(N)=O)C(=O)N[C@H](C(=O)N[C@@H](Cc1ccc(O)cc1)C(=O)N1CCC[C@H]1C(=O)N[C@@H](CCCNC(=N)N)C(=O)N[C@H](C(=O)N[C@@H](CCC(=O)O)C(=O)N[C@H](C(=O)NCC(=O)N[C@@H](CO)C(=O)NCC(=O)N[C@H](C(=O)N[C@@H](Cc1ccc(O)cc1)C(N)=O)[C@@H](C)O)[C@@H](C)O)[C@@H](C)O)[C@@H](C)O)C(C)C)[C@@H](C)O [118bb, [des1, 4G, 9V, 15Q, 21Q, 23Y, 30S, 31G, 32T, 33Y]mimylin] | 11.10 | 11.40 |  |

From patent publication US9593149B2, “Amylin and calcitonin receptor agonist” (Novo Nordisk A/S, priority 2014, dated 2017)
